Measured values published in patent US4150029A, “3-Aryl 2-oxazolidinones, their process of preparation and their therapeutical application” (Delalande S.A., priority 1976, dated 1979).
Where two headings read alike, the source gives them in different places.

Columns and labels:
Assay type in all cases: in vivo
[1] = system: ptosis observed one hour after an intravenous injection of reserpine; assay: Test B: antagonism of reserpine-induced ptosis in the mouse; conditions: po, 1 h, p.o., reserpine 2 mg/kg i.v., read-out: Test B 50 DE
Experimental: Antagonism in relation to ptosis observed one hour after an intravenous injection (2 mg/kg) of reserpine was given to a mouse, according to the mode of operation described by GOURET C. and THOMAS J. in J. Pharmacol. (PARIS), (1973), 4, 401.

[2] = system: generalised trembling caused by an intraperitoneal injection of dl-5-hydroxytryptophane; assay: Test A: potentiation of generalised trembling caused by dl-5-hydroxytryptophane in the mouse; conditions: po, read-out: Test A 50 DE
Experimental: Potentiation in a mouse of generalised trembling caused by an intraperitoneal injection (200 mg/kg) of dl-5-hydroxytryptophane, according to the mode of operation described by GOURET C. and RAYNAUD G. in the J. Pharmacol. (PARIS), (1974), 5, 231.

[3] = system: pontogeniculo-occipital points (P.G.O.) caused by reserpine; assay: Test C: diminution in density of reserpine-induced pontogeniculo-occipital (P.G.O.) points in the cat; conditions: Felis catus, po, reserpine 0.5 mg/kg, read-out: Test C 50 DE
Experimental: Diminution in the density of pontogeniculo-occipital points (P.G.O.) caused by injecting a cat with 0.5 mg/kg of reserpine, according to the mode of operation described by COSTON A. and GOURET C. in J. Pharmacol. (PARIS), (1976), 7, 409.

[4] = mouse, p.o., dl-5-hydroxytryptophane 200 mg/kg i.p.

| Compound | ED50 [1] [mg/kg] | ED50 [2, 4] [mg/kg] | ED50 [3] [mg/kg] | ED50 ([2]; Mus musculus) [mg/kg] |
| --- | --- | --- | --- | --- |
| C#CCOc1ccc(N2CC(CO)OC2=O)cc1 (stereo not drawn) [compound 760307] | 14 | 8 | 5 | – |
| CCCCOc1ccc(N2CC(COC(=O)NC)OC2=O)cc1 (stereo not drawn) [compound 760662] | 17.5 | – | 23 | 48 |
| O=C1OC(CO)CN1c1cccc([N+](=O)[O-])c1 (stereo not drawn) [compound 740511, 5-hydroxymethyl-3-metanitrophenyl-2 oxazolidinone] | 17 | 55 | 40 | – |
| Cc1cccc(COc2ccc(N3CC(CO)OC3=O)cc2)c1 (stereo not drawn) [compound 760533] | 54 | 41 | 51 | – |
| CN(Cc1ccccc1)c1ccc(N2CC(CO)OC2=O)cc1 (stereo not drawn) [compound 760375, 5-hydroxymethyl 3-p-N-benzyl N-methylaminophenyl 2-oxazolidinone] | 28 | 39 | 160 | – |
| CC(C)NC(=O)OCC1CN(c2ccc(OCc3ccccc3)cc2)C(=O)O1 (stereo not drawn) [compound 760723] | 17.5 | > 50 | > 50 | – |
| N#Cc1ccc(COc2ccc(N3CC(CO)OC3=O)cc2)cc1 (stereo not drawn) [compound 760881] | 5 | 12.5 | 29 | – |
| C=CCCOc1ccc(N2CC(CO)OC2=O)cc1 (stereo not drawn) [compound 760536] | 15 | 8.6 | 6.3 | – |
| C=C(C)COc1ccc(N2CC(CO)OC2=O)cc1 (stereo not drawn) [compound 760535] | 50 | 28 | 5.1 | – |
| CNC(=O)OCC1CN(c2ccc(OCC(C)C)cc2)C(=O)O1 (stereo not drawn) [compound 760712] | 25 | – | 35 | 48 |
| C=CCOc1ccc(N2CC(CO)OC2=O)cc1 (stereo not drawn) [compound 760306] | 29 | 14 | 2.5 | – |
| CCOc1ccc(N2CC(COC(=O)NC)OC2=O)cc1 (stereo not drawn) [compound 760104] | 44 | – | > 50 | 48 |
| CCCOc1ccc(N2CC(CO)OC2=O)cc1 (stereo not drawn) [compound 760303] | 14 | 9 | 6.9 | – |
| CC(=O)c1ccc(N2CC(CO)OC2=O)cc1 (stereo not drawn) [compound 760670] | 10 | 21 | 14 | – |
| CCc1cccc(N2CC(CO)OC2=O)c1 (stereo not drawn) [compound 740512] | 32 | 68 | 50 | – |
| CNC(=O)OCC1CN(c2ccc(OCc3ccc([N+](=O)[O-])cc3)cc2)C(=O)O1 (stereo not drawn) [compound 760676] | 6.25 | – | 22 | > 12.5 |
| Cc1ccc(N2CC(CO)OC2=O)cc1C (stereo not drawn) [compound 750341] | 41 | 100 | 22 | – |
| CNC(=O)OCC1CN(c2ccc(OCC#N)cc2)C(=O)O1 (stereo not drawn) [compound 760660, 5-N-methylcarbamoyloxymethyl 3-p-cyanomethyloxyphenyl 2-oxazolidinone] | 31 | – | 12.3 | > 12.5 |
| CCCCCOc1ccc(N2CC(CO)OC2=O)cc1 (stereo not drawn) [compound 760396] | 1.4 | 12 | 20 | – |
| O=C1OC(CO)CN1c1ccc(OCc2cccc(C(F)(F)F)c2)cc1 (stereo not drawn) [compound 760556] | 3.2 | 5 | 14.1 | – |
| O=C1OC(CO)CN1c1ccc(OCc2ccc(Br)cc2)cc1 (stereo not drawn) [compound 760574] | 22 | 21 | > 50 | – |
| CCCCCCOc1ccc(N2CC(CO)OC2=O)cc1 (stereo not drawn) [compound 760549] | 11 | 26 | 85 | – |
| CC(C)=CCOc1ccc(N2CC(CO)OC2=O)cc1 (stereo not drawn) [compound 760650] | 3.4 | 25.5 | 7.03 | – |
| O=C1OC(CO)CN1c1ccc(OCc2cccc(F)c2)cc1 (stereo not drawn) [compound 760453] | 7 | 5.5 | 11.6 | – |
| CCCSc1ccc(N2CC(CO)OC2=O)cc1 (stereo not drawn) [compound 760600] | 15.4 | 19 | 6.26 | – |
